Data published in patent US10307413B2, “Tetrahydro- and dihydro-isoquinoline PRMT5 inhibitors and uses thereof” (Epizyme, Inc., priority 2013, dated 2019).

What was measured:
[1] = test system: symmetric di-methyl arginine in Z-138 cells; assay: Z-138 Methylation Assay (In Cell Western for symmetric di-methyl arginine and DNA content); type: cell-based; conditions: Homo sapiens, read-out: ICW EC50
Text: [formula] [formula] Where top and bottom are the normally allowed to float, but may be fixed at 100 or 0 respectively in a 3-parameter fit. The Hill Coefficient normally allowed to float but may also be fixed at 1 in a 3-parameter fit. Y is the % inhibition and X is the compound concentration.
RPMI/Glutamax medium, penicillin-streptomycin, heat inactivated fetal bovine serum, and D-PBS were purchased from Life Technologies, Grand Island, N.Y., USA. Odyssey blocking buffer, 800CW goat anti-rabbit IgG (H+L) antibody, and Licor Odyssey infrared scanner were purchased from Licor Biosciences, Lincoln, Nebr., USA. Symmetric di-methyl arginine antibody was purchased from EMD Millipore, Billerica, Mass., USA. 16% Paraformaldehyde was purchased from Electron Microscopy Sciences, Hatfield, Pa., USA.
Cell Treatment, in Cell Western (ICW) for Detection of Symmetric Di-Methyl Arginine and DNA Content.
Z-138 cells were seeded in assay medium at a concentration of 50,000 cells per mL to a 384-well cell culture plate with 50 μL per well. Compound (100 nL) from 384 well source plates was added directly to 384 well cell plate. Plates were incubated at 37° C., 5% CO2 for 96 hours. […] Plates were incubated at room temperature for 30 minutes then incubated at 37° C., 5% CO2 for 5 hours. After the incubation, 40 μL per well of 8% paraformaldehyde in PBS (16% paraformaldahyde was diluted to 8% in PBS) was added to each plate and incubated for 30 minutes. […] Next 30 μL per well of Odyssey blocking buffer were added to each plate and incubated 1 hour at room temperature. Blocking buffer was removed and 20 μL per well of primary antibody was added (symmetric di-methyl arginine diluted 1:100 in Odyssey buffer with 0.1% Tween 20 (v/v)) and plates were incubated overnight (16 hours) at 4° C. Plates were washed 5 times with 100 μL per well of wash buffer. Next 20 μL per well of secondary antibody was added (1:200 800CW goat anti-rabbit IgG (H+L) antibody, 1:1000 DRAQ5 (Biostatus limited) in Odyssey buffer with 0.1% Tween 20 (v/v)) and incubated for 1 hour at room temperature. The plates were washed 5 times with 100 μL per well wash buffer then 1 time with 100 μL per well of water. Plates were allowed to dry at room temperature then imaged on the Licor Odyssey machine which measures integrated intensity at 700 nm and 800 nm wavelengths. Both 700 and 800 channels were scanned.
First, the ratio for each well was determined by:
Each plate included fourteen control wells of DMSO only treatment (minimum inhibition) as well as fourteen control wells for maximum inhibition treated with 3 μM of a reference compound (Background wells). The average of the ratio values for each control type was calculated and used to determine the percent inhibition for each test well in the plate. Reference compound was serially diluted three-fold in DMSO for a total of nine test concentrations, beginning at 3 μM. Percent inhibition was determined and IC50 curves were generated using triplicate wells per concentration of compound. Percent Inhibition=100−

[2] = test system: Z-138 cell line; assay: Z-138 Proliferation Assay (Cell Titer Glo, 5 days); type: cell-based; conditions: Homo sapiens, 120 h; Z-138 cells, 5 days; read-out: Proliferation EC50
Text: RPMI/Glutamax medium, penicillin-streptomycin, heat inactivated fetal bovine serum were purchased from Life Technologies, Grand Island, N.Y., USA. V-bottom polypropylene 384-well plates were purchased from Greiner Bio-One, Monroe, N.C., USA. Cell culture 384-well white opaque plates were purchased from Perkin Elmer, Waltham, Mass., USA. Cell-Titer Glo® was purchased from Promega Corporation, Madison, Wis., USA. SpectraMax M5 plate reader was purchased from Molecular Devices LLC, Sunnyvale, Calif., USA.
A compound source plate was prepared by performing triplicate nine-point 3-fold serial dilutions in DMSO, beginning at 10 mM (final top concentration of compound in the assay was 20 μM and the DMSO was 0.2%). A 100 nL aliquot from the compound stock plate was added to its respective well in the cell plate. […] After addition of compounds, assay plates were incubated for 5 days at 37° C., 5% CO2, relative humidity >90%.
Cell viability was measured by quantitation of ATP present in the cell cultures, adding […] of Cell Titer Glo® reagent to the cell plates. Luminescence was read in the SpectraMax M5 microplate reader. The concentration of compound inhibiting cell viability by 50% was determined using a 4-parametric fit of the normalized dose response curves.

Structure (SMILES) | EC50 [1] [µM] | EC50 [2] [µM]
O=C(NC[C@H](O)CN1CCc2ccccc2C1)Nc1ccccc1 [Compound 5] | 0.101 to 1 | > 20
O=C(NCC(O)CN1CCc2ccccc2C1)c1cccc(-c2ccncc2)c1 (stereo not drawn) [Compound 9, N-(3-(3,4-dihydroisoquinolin-2(1H)-yl)-2-hydroxypropyl)-3-(pyridin-4-yl)benzamide] | < 0.1 | 1 to 10
CN1CCN(Cc2cccc(C(=O)NCC(O)CN3CCc4ccccc4C3)c2)CC1 (stereo not drawn) [Compound 30, N-(3-(3,4-dihydroisoquinolin-2(1H)-yl)-2-hydroxypropyl)-3-((4-methylpiperazin-1-yl)methyl)benzamide] | 0.101 to 1 | 1 to 10
O=C(NC[C@H](O)CN1CCc2ccccc2C1)c1ccnc(OC2CCNCC2)c1 [Compound 229] | < 0.1 | 1 to 10
CCOC(=O)CN1CCN(Cc2cccc(C(=O)NCC(O)CN3CCc4ccccc4C3)c2)CC1 (stereo not drawn) [Compound 165] | 0.101 to 1 | 1 to 10
Cc1ccc(NC2COC2)cc1C(=O)NCC(O)CN1CCc2ccccc2C1 (stereo not drawn) [Compound 97] | < 0.1 | 1 to 10
O=C(NC[C@H](O)CN1CCc2ccccc2C1)c1cc(NC2COC2)ncn1 [Compound 166, (S)—N-(3-(3,4-dihydroisoquinolin-2(1H)-yl)-2-hydroxypropyl)-6-(oxetan-3-ylamino)pyrimidine-4-carboxamide] | < 0.1 | 0.101 to 1
O=C(NCC(O)CN1CCc2ccccc2C1)c1cccc(NC2CCOCC2)n1 (stereo not drawn) [Compound 73] | < 0.1 | 1 to 10
C[C@@H]1CC(Nc2cccc(C(=O)NC[C@H](O)CN3CCc4ccccc4C3)c2)CCO1 (stereo partly drawn) [Compound 168] | < 0.1 | 0.101 to 1
CN1CCC(Nc2cc(C(=O)NC[C@H](O)CN3CCc4ccccc4C3)ncn2)C1 (stereo partly drawn) [Compound 181] | 0.101 to 1 | 1 to 10
O=C(NCC(O)CN1CCc2ccccc2C1)c1cccc(C2CCOC2)c1 (stereo not drawn) [Compound 154] | 0.101 to 1 | 1 to 10
CN1CCC(N(C)c2cccc(C(=O)NCC(O)CN3CCc4ccccc4C3)c2)C1 (stereo not drawn) [Compound 132] | 0.101 to 1 | 1 to 10
Cn1ccc(C(=O)NCC(O)CN2CCc3ccccc3C2)n1 (stereo not drawn) [Compound 149] | 1 to 10 | > 20
Cc1ccc2cc(C(=O)NCC(O)CN3CCc4ccccc4C3)ccc2n1 (stereo not drawn) [Compound 84, N-(3-(3,4-dihydroisoquinolin-2(1H)-yl)-2-hydroxypropyl)-2-methylquinoline-6-carboxamide] | < 0.1 | 1 to 10
O=C(NC[C@H](O)CN1CCc2ccccc2C1)c1ccnc(NCc2ccncc2)c1 [Compound 189] | < 0.1 | 0.101 to 1
CC(C)N1CCC(Oc2ccc(C(=O)NCC(O)CN3CCc4ccccc4C3)cc2)C1 (stereo not drawn) [Compound 196] | < 0.1 | 1 to 10
NC(=O)CNCc1cccc(C(=O)NCC(O)CN2CCc3ccccc3C2)c1 (stereo not drawn) [Compound 116] | 0.101 to 1 | > 20
CC(C)N1CCC(Oc2ccc(C(=O)NCC(O)CN3CCc4ccccc4C3)cc2)CC1 (stereo not drawn) [Compound 106] | < 0.1 | 0.101 to 1
CN(C)CCOc1cc(C(=O)NC[C@H](O)CN2CCc3ccccc3C2)ccn1 [Compound 234] | < 0.1 | 1 to 10
Cc1ccc(NC2CCOC2)cc1C(=O)NCC(O)CN1CCc2ccccc2C1 (stereo not drawn) [Compound 96] | < 0.1 | 1 to 10
O=C(NCC(O)CN1CCc2ccccc2C1)c1cccc(OCCN2CCOCC2)c1 (stereo not drawn) [Compound 133] | < 0.1 | 1 to 10
O=C(NC[C@H](O)CN1CCc2ccccc2C1)c1ccnc(NC2CCNC2)c1 (stereo partly drawn) [Compound 201] | 0.101 to 1 | 1 to 10
O=C(NC[C@H](O)CN1CCc2ccccc2C1)c1cc(NC2CCN(CC(F)(F)F)C2)ncn1 (stereo partly drawn) [Compound 182] | < 0.1 | 1 to 10
CS(=O)(=O)N1CCC(Nc2ccc(C(=O)NCC(O)CN3CCc4ccccc4C3)cc2)CC1 (stereo not drawn) [Compound 141] | < 0.1 | 1 to 10
CN1CCC(N(C)c2cccc(C(=O)NCC(O)CN3CCc4ccccc4C3)c2)CC1 (stereo not drawn) [Compound 131] | 0.101 to 1 | 1 to 10
CC(=O)N1CCC(Nc2cccc(C(=O)NC[C@H](O)CN3CCc4ccccc4C3)c2)CC1 [Compound 215] | < 0.1 | < 0.1
CN(C)CCNc1cc(C(=O)NC[C@H](O)CN2CCc3ccccc3C2)ccn1 [Compound 214] | < 0.1 | 1 to 10
CCN(c1cccc(C(=O)NCC(O)CN2CCc3ccccc3C2)c1C)C1CCOCC1 (stereo not drawn) [Compound 41] | < 0.1 | 1 to 10

The next lines start with results.

EC50 [1] [µM] | Structure (SMILES) | EC50 [2] [µM]
< 0.1 | COCCN1CCC(Oc2ccc(C(=O)NC[C@H](O)CN3CCc4ccccc4C3)cc2)CC1 [Compound 329] | 0.101 to 1
0.101 to 1 | Cc1cnc(NC2CCOC2)cc1C(=O)NC[C@H](O)CN1CCc2ccccc2C1 (stereo partly drawn) [Compound 308] | 10 to 50
< 0.1 | O=C(NC[C@H](O)CN1CCc2ccccc2C1)c1ccnc(NC2CCCC2)c1 [Compound 334] | < 0.1
0.101 to 1 | O=C(NC[C@H](O)CN1CCc2ccccc2C1)c1ccnc(NCC2CCNCC2)c1 [Compound 235] | > 20
< 0.1 | Cn1nc(NC2CCOCC2)cc1C(=O)NCC(O)CN1CCc2ccccc2C1 (stereo not drawn) [Compound 311] | < 0.1
< 0.1 | CC(=O)N(C)CCNc1cc(C(=O)NC[C@H](O)CN2CCc3ccccc3C2)ccn1 [Compound 315] | 0.101 to 1
< 0.1 | O=C(NC[C@H](O)CN1CCc2ccccc2C1)c1ccnc(OC2CCOCC2)c1 [Compound 323] | 0.101 to 1
0.101 to 1 | Cn1nc(C(=O)NCC(O)CN2CCc3ccccc3C2)cc1NC1CCOCC1 (stereo not drawn) [Compound 312] | 1 to 10
< 0.1 | CC(=O)N1CC(Nc2cc(C(=O)NC[C@H](O)CN3CCc4ccccc4C3)ncn2)C1 [Compound 284, (S)-6-((1-acetylazetidin-3-yl)amino)-N-(3-(3,4-dihydroisoquinolin-2(1H)-yl)-2-hydroxypropyl)pyrimidine-4-carboxamide] | < 0.1
0.101 to 1 | CN1CC(Nc2cc(C(=O)NC[C@H](O)CN3CCc4ccccc4C3)ncn2)C1 [Compound 281] | 10 to 50
< 0.1 | CC(=O)N1CC[C@@H](Nc2cccc(C(=O)NC[C@H](O)CN3CCc4ccccc4C3)c2)C1 [Compound 293] | < 0.1
0.101 to 1 | Cc1cc2ncc(C(=O)NC[C@H](O)CN3CCc4ccccc4C3)c(C)n2n1 [Compound 275] | 1 to 10
0.101 to 1 | O=C(NC[C@H](O)CN1CCc2ccccc2C1)c1ccc2c(c1)OCCO2 [Compound 274] | 1 to 10
< 0.1 | CS(=O)(=O)N1CC[C@@H](Nc2cccc(C(=O)NC[C@H](O)CN3CCc4ccccc4C3)c2)C1 [Compound 267] | 0.101 to 1
< 0.1 | O=C(NC[C@H](O)CN1CCc2ccccc2C1)c1cnc2ccccc2c1 [Compound 317] | 0.101 to 1
< 0.1 | CN(c1cc(C(=O)NC[C@H](O)CN2CCc3ccccc3C2)ccn1)C1CCC1 [Compound 333] | 0.101 to 1
< 0.1 | O=C(NC[C@H](O)CN1CCc2ccccc2C1)c1cc(NC2CN(CC(F)(F)F)C2)ncn1 [Compound 282] | 1 to 10
